Assays:
[1] = Cytotoxicity against human MT4 cells; format: cell-based
[2] = Selectivity index, ratio of CC50 for human MT4 cells to EC50 for HIV1 3B; format: toxicity, cell-based; settings: for selectivity ratio: MT4 cells, read-out: Ratio CC50/EC50; for Activity: mt4
[3] = tested on: Human immunodeficiency virus 1; experiment: Antiviral activity against HIV1 3B in human MT4 cells assessed as protection of cell against virus-induced cytopathogenicity; format: functional, organism-based; settings: Human immunodeficiency virus 1, 3B

| Compound | CC50 [1] [µM] | selectivity ratio [2] | EC50 [3] [µM] | Activity [2] |
| --- | --- | --- | --- | --- |
| COc1ccc(-c2nnsc2SCC(=O)Nc2ccccc2[N+](=O)[O-])cc1 | ≥ 281 | ≥ 283 | 0.99 |  |
| O=C(CSc1snnc1-c1ccc(Cl)cc1Cl)Nc1ccccc1Cl | 111 | 943 | 0.118 |  |
| O=C(CSc1snnc1-c1ccc(Cl)cc1Cl)Nc1ccccc1[N+](=O)[O-] | > 283 | > 4880 | 0.059 |  |
| CCOC(=O)c1ccc(NC(=O)CSc2snnc2-c2ccccc2)c(Br)c1 | ≥ 232 | ≥ 45 | 5.21 |  |
| Cc1ccc(-n2c(C)nnc2SCC(=O)Nc2ccccc2)cc1 |  |  | 2.05 |  |
| O=C(CSc1snnc1-c1ccc(F)cc1F)Nc1ccccc1Cl | 178 | 146 | 1.23 |  |
| CCOC(=O)c1ccc(NC(=O)CSc2snnc2-c2ccc(OC)cc2)c(Br)c1 | > 246 | > 82 | 3.01 |  |
| COc1ccc(-c2nnsc2SCC(=O)Nc2ccccc2Br)cc1 | > 286 | > 90 | 3.19 |  |
| COc1ccc(-c2nnsc2SCC(=O)Nc2ccccc2F)cc1 | > 333 |  | 333 | Not Active |
| O=C(CSc1snnc1-c1ccccc1)Nc1ccccc1Cl | > 345 | > 13 | 26.1 |  |
| CC(C)Nc1cccnc1N1CCN(C(=O)c2cc3cc(NS(C)(=O)=O)ccc3[nH]2)CC1 [DELAVIRDINE] | > 3.83 | > 12 | 0.32 |  |
| Cc1ccc(NC(=O)CSc2snnc2-c2ccc(F)cc2F)c(Br)c1 | > 274 | > 189 | 1.45 |  |
| O=C1Nc2ccc(Cl)cc2[C@@](C#CC2CC2)(C(F)(F)F)O1 [EFAVIRENZ] | > 6.34 | > 1430 | 0.0044 |  |
| O=C(CSc1snnc1-c1ccc(F)cc1F)Nc1ccccc1[N+](=O)[O-] | 165 | 40 | 4.14 |  |
| O=C(CSc1snnc1-c1ccccc1)Nc1ccccc1F | > 362 |  | 362 | Not Active |
| Cc1ccc(NC(=O)CSc2snnc2-c2ccccc2)c(Br)c1 | > 297 | > 22 | 13.7 |  |

| Compound | CC50 [1] [µM] | selectivity ratio [2] | EC50 [3] [µM] | Activity [2] |
| --- | --- | --- | --- | --- |
| O=C(CSc1snnc1-c1ccccc1)Nc1ccccc1[N+](=O)[O-] | ≥ 247 |  | ≥ 54.2 | Not Active |
| O=C(CSc1snnc1-c1ccccc1)Nc1ccccc1Br | > 308 | > 14 | 22.4 |  |
| Cc1ccnc2c1NC(=O)c1cccnc1N2C1CC1 [NEVIRAPINE] | > 15 |  |  |  |
| O=C(CSc1snnc1-c1ccc(F)cc1F)Nc1ccccc1F | 148 | 27 | 5.45 |  |
| CCOC(=O)c1ccc(NC(=O)CSc2snnc2-c2ccc(Cl)cc2Cl)c(Br)c1 | > 228 | > 2300 | 0.099 |  |
| O=C(CSc1snnc1-c1ccc(F)cc1F)Nc1ccccc1Br | 144 |  | 2.26 |  |
| COC(=O)c1ccc(NC(=O)CSc2snnc2-c2ccc(OC)cc2)c(Br)c1 | 195 | 97 | 2 |  |
| Cc1ccc(NC(=O)CSc2snnc2-c2ccc(Cl)cc2Cl)c(Br)c1 | > 256 | > 1260 | 0.204 |  |
| COc1ccc(-c2nnsc2SCC(=O)Nc2ccccc2Cl)cc1 | > 319 | > 121 | 2.63 |  |
| O=C(CSc1snnc1-c1ccc(Cl)cc1Cl)Nc1ccccc1Br | ≥ 147 | ≥ 981 | 0.149 |  |
| Cc1cn([C@H]2C[C@H](N=[N+]=[N-])[C@@H](CO)O2)c(=O)[nH]c1=O [ZIDOVUDINE] | > 93.5 | > 6190 | 0.0151 |  |
| NS(=O)(=O)c1ccc(NC(=O)CSc2nnc(Br)n2-c2ccc(C3CC3)c3ccccc23)c(Cl)c1 |  |  | 0.14 |  |
| COc1ccc(-c2nnsc2SCC(=O)Nc2ccc(C)cc2Br)cc1 | 249 | 49 | 5.06 |  |
| O=C(CSc1snnc1-c1ccc(Cl)cc1Cl)Nc1ccccc1F | 19.5 | 145 | 0.135 |  |
| COC(=O)c1ccc(NC(=O)CSc2snnc2-c2ccccc2)c(Br)c1 | > 269 | > 53 | 5.1 |  |

From ChEMBL document CHEMBL1142475, “1,2,3-Thiadiazole thioacetanilides as a novel class of potent HIV-1 non-nucleoside reverse transcriptase inhibitors” (Bioorg Med Chem Lett, 2008)
